In assay [1] the test system is high-fat diet induced ApoE-/-mice atherosclerosis model (aortic atherosclerotic plaque). The experiment in a line: Treatment of atherosclerosis: aortic plaque area in high-fat diet induced ApoE-/- mice, samples given for 4 weeks after 17 weeks of modeling. It is filed as in vivo.
Description: (§1) Wild type C57 mice were used as a normal control group, rosuvastatin was used as a positive drug, and the efficacy (i.e., treating effect) of the composition samples in resisting atherosclerosis was investigated in a high-fat diet induced ApoE-/-mice atherosclerosis model. An atherosclerosis model was established after 17 weeks of modeling, and a control group was fed with a common feed for 17 weeks. The sample administration group was continuously administered with the test samples for 4 weeks after 17 weeks of modeling, and thereafter the formation of aortic atherosclerotic plaque in the mice was observed, and the plaque area was measured after dissection to calculate the plaque percentage.
(§2) Wild type C57 mice were used as a normal control group, rosuvastatin and atorvastatin were used as positive drugs, and the efficacy (i.e., treating effect) of the composition mixed samples in resisting atherosclerosis was investigated in a high-fat diet induced ApoE-/-mice atherosclerosis model. An atherosclerosis model was established after 17 weeks of modeling, and a control group was fed with a common feed for 17 weeks. The sample administration group was continuously administered with the test samples for 4 weeks after 17 weeks of modeling, and thereafter the formation of aortic atherosclerotic plaque in the mice was observed, and the plaque area was measured after dissection to calculate the plaque percentage.
as §2, with “aspirin, clopidogrel, colchicine” for “rosuvastatin”, “probucol” for “atorvastatin”
as §1, with “the” for “the composition”
as §1, with “mice were dissected,” for “plaque area was measured after dissection”, “area (percentage).” for “percentage.”

The test system is the same in assay [2]. The experiment in a line: Prevention of atherosclerosis: aortic plaque area in high-fat diet induced ApoE-/- mice, samples given during 12 weeks of modeling. It is filed as in vivo. The following applies: dose 1.67 mg/kg. The text has this:
An atherosclerosis model (namely, model group) was established after 12 weeks of modeling, and a control group (namely normal group) was fed with a common feed for 12 weeks. […] An atherosclerosis model (namely, model group) was established after 12 weeks of modeling, and a control group (namely normal group) was fed with a common feed for 12 weeks.

Where [3] appears, read: Table 6, treatment, drug alone 16.7 mg/kg.
[4] abbreviates: Table 5, treatment, drug alone 1.67 mg/kg.
Setting [5] is: Table 5, treatment, drug alone 3.33 mg/kg.
[6] abbreviates: Table 6, treatment, drug alone 12.5 mg/kg.
Setting [7] is: Table 6, treatment, drug alone 0.167 mg/kg.
Setting [8] is: Table 6, treatment, drug alone 83.5 mg/kg.
Where [9] appears, read: Table 2, treatment, 4 weeks, dose 1.67 mg/kg.
[10] abbreviates: Table 4, treatment, 4 weeks, dose 1.67 mg/kg.
[11] abbreviates: Table 5, treatment, drug alone 0.83 mg/kg.
Where [12] appears, read: Table 7, treatment, dose 1.67 mg/kg.
Where [13] appears, read: Table 8, treatment, dose 1.67 mg/kg.
[14] abbreviates: Table 9, treatment, dose 1.67 mg/kg.

SMILES strings stand for the structures. Marks after values point to notes of the source that are not given here.

For `CC(=O)Oc1ccccc1C(=O)O` [aspirin], in assay [1] (setting [3]), the “Inhibition rate compared to the model %” value is 33.74% and the Plaque area % worked out at 29.91%*.

Turning to `CC(C)c1c(C(=O)Nc2ccccc2)c(-c2ccccc2)c(-c2ccc(F)cc2)n1CC[C@@H](O)C[C@@H](O)CC(=O)O` [atorvastatin], in assay [1] (setting [4]), the “Inhibition rate compared to the model %” value is listed as 18.76% and the Plaque area % is given as 32.99%*. Moreover, in assay [1] (setting [5]), the “Inhibition rate compared to the model %” value was 28.47% and the Plaque area % is listed as 29.05%*.

For the molecule `COC(=O)[C@H](c1ccccc1Cl)N1CCc2sccc2C1` [clopidogrel], in assay [1] (setting [6]), the “Inhibition rate compared to the model %” value stood at 32.76% and the Plaque area % is reported as 30.35%*.

With `COc1cc2c(c(OC)c1OC)-c1ccc(OC)c(=O)cc1[C@@H](NC(C)=O)CC2` [colchicine], in assay [1] (setting [7]), the “Inhibition rate compared to the model %” value is recorded as 25.12% and the Plaque area % was 33.80%*.

Take `CC(C)(Sc1cc(C(C)(C)C)c(O)c(C(C)(C)C)c1)Sc1cc(C(C)(C)C)c(O)c(C(C)(C)C)c1` [probucol]: in assay [1] (setting [8]), the “Inhibition rate compared to the model %” value was 21.91% and the Plaque area % is recorded as 35.25%*.

In the case of `CC(C)c1nc(N(C)S(C)(=O)=O)nc(-c2ccc(F)cc2)c1/C=C/[C@@H](O)C[C@@H](O)CC(=O)O` [rosuvastain, rosuvastatin], the “Inhibition rate compared to the model %” value in assay [2] (Table 1, prevention) was 36.61%; in assay [2] (Table 3, prevention), 30.61%; in assay [1] (setting [9]) it was 38.69%; in assay [1] (setting [10]), 34.77%; in assay [1] (setting [11]), 16.97%; in assay [1] (setting [4]), 31.40%. Besides, the “Inhibition rate compared to the model %” value was determined as 34.77% in assay [1] (setting [12]), 38.69% in assay [1] (setting [13]) and 42.69% in assay [1] (setting [14]). In addition, the Plaque area % is reported as 20.93%** in assay [2] (Table 1, prevention); 24.82% in assay [2] (Table 3, prevention); 26.10%* in assay [1] (setting [9]); 25.87%** in assay [1] (setting [10]); 33.72%* in assay [1] (setting [11]); 27.86%* in assay [1] (setting [4]). The Plaque area % amounted to 25.87%** in assay [1] (setting [12]), 26.10%* in assay [1] (setting [13]) and 27.94%** in assay [1] (setting [14]).

The values are drawn from US20250295724A1, “COMPOSITION OF MALUS NIEDZWETZKYANA DIECK AND PRUNUS CERASIFERA EHRHART AND USE THEREOF IN TERMS OF RESISTING ATHEROSCLEROSIS” (priority 2023, published 2025).
